The values that follow come from article PMC5871694, “S-Adenosyl-L-Homocysteine Hydrolase Inhibition by a Synthetic Nicotinamide Cofactor Biomimetic” (Frontiers in Microbiology, 2018).

For series [1], the target named is bovine liver SAHase. Set-up: method as in Porter and Boyd, 1992. The settings on record: cited from earlier work.
Series [2] deals with T1, Bradyrhizobium elkanii SAHase (BeSAHase) (Bradyrhizobium elkanii, UniProt A0A087WNH6).
T1 construct: His-tag (N); made in house; host or cells: E. coli
T1 sequence (A0A087WNH6 1-473): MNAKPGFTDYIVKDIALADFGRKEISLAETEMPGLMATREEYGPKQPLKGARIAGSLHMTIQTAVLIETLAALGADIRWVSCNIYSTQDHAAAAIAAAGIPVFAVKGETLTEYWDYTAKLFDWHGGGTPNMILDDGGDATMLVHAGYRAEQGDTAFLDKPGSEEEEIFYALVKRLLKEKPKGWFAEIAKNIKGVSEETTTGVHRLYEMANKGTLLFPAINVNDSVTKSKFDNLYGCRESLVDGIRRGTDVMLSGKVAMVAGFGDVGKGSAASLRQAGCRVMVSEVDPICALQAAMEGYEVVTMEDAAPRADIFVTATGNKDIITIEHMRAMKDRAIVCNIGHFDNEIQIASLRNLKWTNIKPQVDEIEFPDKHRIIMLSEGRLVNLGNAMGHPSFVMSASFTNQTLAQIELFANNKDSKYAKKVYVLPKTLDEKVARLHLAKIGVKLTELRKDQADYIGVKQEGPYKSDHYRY
The series can be described thus: HPLC-based endpoint activity assay in the direction of SAH synthesis. Format: biochemical. On the procedure: HPLC-based activity measurements in the direction of SAH synthesis were carried out as described by [Kailing et al. (2017)], with constant substrate concentrations (0.5 mM) of both Ado and Hcy. For the cofactor screenings, the assay was supplemented with 2 mM of the respective compound and reactions were initiated with ∼10 μg (700 nM final concentrations in assay) of apo- or holo-BeSAHase, respectively. One set of reactions was terminated after 30 min, the other after 17 h. […] Reactions were terminated after 30 min. Conversions were derived from HPLC chromatograms as described before ([Kailing et al., 2017]), plotted against the concentration of inhibitor and a linear regression analysis was performed with the GraphPad Prism software (v. 6.01). The IC50 was calculated as the concentration leading to half-maximum effect of the inhibitor.

Series [3] deals with T1, Bradyrhizobium elkanii SAHase (BeSAHase). Put plainly: Photometric DTNB kinetic assay in the hydrolytic direction (SAH hydrolysis). Format: biochemical. How it is done:
Reactions were performed at room temperature in 100 μL sodium phosphate buffer (100 mM, pH 8), supplemented with 1 mM EDTA, 0.2 mM 5,5′-dithiobis(2-nitrobenzoic acid) (DTNB) and SAHase. In experiments with defined NAD^+ concentrations, apo-SAHase was pre-incubated with the respective amount of cofactor for at least 2 h, to ensure that the binding equilibrium was reached before initiation of the reaction. Enzyme concentrations were adjusted according to specific activity, to avoid exceeding maximum reaction rates (vmax) of 0.01 mM⋅min^-1. Higher reaction rates would lead to product inhibition, caused by the accumulation of Ado, in the time frame of the measurement. Reactions were initiated by addition of the substrate (SAH). The reaction rate was monitored photometrically, using DTNB to detect the formation of Hcy. Experiments were carried out in a double-beam UV-vis spectrophotometer (Specord 205, Analytik Jena). Initial reaction rates (v0) were calculated from the first 20–25 s of the reaction, based on the increase of extinction (ΔE) at 412 nm over time (Δt) in a quartz cuvette with a path length (d) of 1 cm, assuming an extinction coefficient (ε) of 14,150 L cm^-1 mol^-1 for the product: v0 = ΔE ⋅ ε412 nm–1 ⋅ d^-1 ⋅ Δt^-1. The assay was validated by comparison to data obtained with the coupled photometric assay described by [Kailing et al. (2017)]. The latter assay was not used in this study, since NCB 10 contributes to oxidation of the monitoring compound NADH in a non-enzymatic way, thereby compromising the reliability of the measurement.
Initial reaction rates were plotted against the concentration of inhibitor and a linear regression analysis was performed as described above for the HPLC assay. The inhibitory constant (Ki) was calculated from the following relation, where KM, [E] and [S] denote the Michaelis–Menten constant, concentration of enzyme and of substrate, respectively: IC50 = Ki ⋅ KM–1 ) + [E]0/2 ([Cha, 1975]). Characterization of the inhibition model was done by measuring Michaelis–Menten kinetics in the presence of varying inhibitor concentrations. KM and maximum reaction rate (vmax) values were obtained by non-linear Michaelis–Menten fitting using GraphPad Prism.
Kinetic-based binding studies to determine the half-maximum effective concentration (EC50) for NAD^+ were carried out with 330 nM SAHase, after pre-incubation with the respective amount of NAD^+, and constant substrate concentrations (0.2 mM SAH). Initial reaction rates were plotted against the NAD^+ concentration and a hyperbolic fit was calculated using GraphPad Prism. The EC50 was calculated as the NAD^+ concentration leading to half-maximum activation of BeSAHase.

For series [4] the target is unchanged. The series can be described thus: Isothermal titration calorimetry (ITC). Format: binding. The conditions noted are these: for binding to apo-BeSAHase: titration of apo-BeSAHase; for binding to holo-BeSAHase: titration of holo-BeSAHase; for KD: apo-BeSAHase titrated with cofactor, 25°C, pH 7. On the procedure:
Interaction analyses by ITC were performed with an Affinity ITC microcalorimeter (Low Volume, 24 K Gold Cell; TA Instruments). Prior to measurements, protein was dialyzed into 20 mM MOPS buffer containing 150 mM NaCl. The buffer was adjusted to pH 7 at room temperature, but dialysis was carried out at 4°C. To ensure equal buffer conditions, ligands were dissolved and diluted in the same buffer that was used for the last step of protein dialysis. Measurements were carried out at a constant cell temperature of 25°C. The cell was equilibrated with 40–90 μM SAHase for at least 10 min before the first injection of the respective ligand. The volume of the injections was varied between 2 and 4 μL, depending on the experiment and ligand concentration. The spacing between injections was adjusted according to the time required to reach the binding equilibrium (usually 240–500 s). Ligand titration was continued until peak sizes remained constant, representing only the enthalpy of dilution. The latter was subtracted from the raw data using a mock titration of the ligand into buffer only. Data evaluation was performed with the NanoAnalyze software (v. 3.7.5; TA Instruments), using the model “independent set of multiple binding sites” ([Freire et al., 1990]) for KD determination.

For series [5] the following is noted: physiological pH, cited from earlier work.
Series [6] deals with SAHase from humans. Details: method as in Li Q.-S. et al., 2007. The settings on record: human SAHase; ref Li Q.-S. et al., 2007; cited from earlier work.
For series [7], the target named is SAHase from Trypanosoma cruzi. Details: method as in Li Q.-S. et al., 2007. The settings on record: ref Li Q.-S. et al., 2007; cited from earlier work.
The mark [8] stands for this setting: ref Porter and Boyd, 1992, read-out: KD (estimated).
[9] abbreviates: calculated from IC50, KM, enzyme and substrate concentration.

The structures appear in SMILES notation. Where “and” joins values, the source holds several entries; their conditions need not be identical. Equal entries are not always repeated. Where two headings read alike, the source gives them in different places.

Usually Kd stands for a measure of binding affinity in units of concentration. As for `Nc1ncnc2c1ncn2C1OC(CO)C(=O)C1O` (stereo not shown) [3′-ketoadenosine], the Kd in series [1] (setting [8]) is 0.0006 µM.

On to `C=C1OC(n2cnc3c(N)ncnc32)C(O)C1=O` (stereo not shown) [4′,5′-dehydro-3′-ketoadenosine], for which the Kd in series [1] (setting [8]) was 0.0003 µM.

In general, IC50 refers to the point on the concentration scale where inhibition reaches its midpoint. Higher therefore signals weaker potency in that assay. The inhibition is the drop in the measured response relative to a control, in per cent. For orientation: Ki means the equilibrium dissociation constant of an inhibitor or competing ligand from its target. On to `N#Cc1ccc[n+](Cc2ccccc2)c1` [NCB 10], for which the IC50 in series [2] (100 nM NAD+-saturated SAHase, 0.5 mM Ado and Hcy, 30 min, linear regression) is ~1400 µM and 1440 µM. In addition, in series [2] (holo-SAHase in the presence of excess NAD+, 2 mM compound, read-out: inhibition of substrate conversion), the inhibition at 2000 µM is around 75%. The IC50 in series [3] (285 nM NAD+-saturated BeSAHase, 0.2 mM SAH, linear regression) is ~14000 µM and 14400 µM. For the same compound, the inhibition mechanism entry in series [3] (Michaelis-Menten kinetics with varying inhibitor concentrations) is listed as “non-competitive”. For the same compound, in series [3] (setting [9]), the inhibition constant Ki was around 2000 µM and the “Ki,hydrolysis” value is on record as “millimolar range”. Moreover, in series [4], the “binding to apo-BeSAHase” value is given as “small binding enthalpies” and the “binding to holo-BeSAHase” value is listed as “small binding enthalpies”. Besides, in series [4] (listed as 10), the “binding to apo-BeSAHase” value was “Neither titration of holo-, nor of apo-SAHase gave any hint of a binding event” and the “binding to holo-BeSAHase” value is recorded as “Neither titration of holo-, nor of apo-SAHase gave any hint of a binding event”. In series [5] (10ox/10red, ref Ostovic et al., 1985), the redox potential was -220 mV.

For orientation: EC50 means the concentration giving half of the maximal effect. For `NC(=O)c1ccc[n+]([C@@H]2O[C@H](COP(=O)([O-])OP(=O)(O)OC[C@H]3O[C@@H](n4cnc5c(N)ncnc54)[C@H](O)[C@@H]3O)[C@@H](O)[C@H]2O)c1` [NAD^+, nicotinamide adenine dinucleotide, reference compound], the “reconstitution of activity of apo-SAHase” value in series [2] (apo-BeSAHase, 2 mM compound, 0.5 mM Ado and Hcy, 30 min and 17 h) is reported as “recovered highly active enzyme”. For the same compound, the “time to full substrate conversion after re-supplementation of apo-SAHase” value in series [2] (apo-BeSAHase, HPLC-based assay conditions) was “less than 30 min”. For the same compound, the concentration for a half-maximal effect (EC50) in series [3] (330 nM apo-SAHase pre-incubated with NAD+, 0.2 mM SAH, hyperbolic fit, read-out: EC50 (half-maximum activation of BeSAHase)) is ~10 µM and 11.2 µM. For the same compound, the KD entry in series [4] is “low micromolar range”. For the same compound, in series [5] (NAD+/NADH, ref Burton and Wilson, 1953), the redox potential was -320 mV.

For `NC(=O)C1=CN([C@@H]2O[C@H](COP(=O)(O)OP(=O)(O)OC[C@H]3O[C@@H](n4cnc5c(N)ncnc54)[C@H](O)[C@@H]3O)[C@@H](O)[C@H]2O)C=CC1` [NADH], the KD entry in series [4] was “low micromolar range”. In addition, the KD range entry in series [6] and in series [7] was “nanomolar” each time.

`Nc1ncnc2c1ncn2[C@@H]1O[C@H](CO)[C@@H](O)[C@H]1O` [Ado, adenosine]: in series [1] (ref Porter and Boyd, 1992, read-out: KD), the Kd was 9 µM.
